Measured values: patent US12180193B2, “Accelerating fibrosarcoma protein degrading compounds and associated methods of use” (Arvinas Operations, Inc., priority 2020, dated 2024)

How the values were obtained:
[1] = molecular target: T1, BRAF V600E (Homo sapiens, UniProt P15056, V600E); test: Cellular assay of target protein degradation, T-Rex 293 cells stably transfected with HA-BRAF_V600E (HA immunofluorescence, high content imaging); format: cell-based; details: T-Rex 293 HA-BRAF V600E; for DC50: half maximal degradation, read-out: BRaf V600E DC50; for Dmax: maximum degradation observed
T1 construct: expressed in transfected cells
How it was run: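 Cells are plated with 1 ng/mL doxycycline and grown 24 h. Compound is then added (final 1 μM–0.1 nM, 0.1% DMSO) for another 24 h at 37 °C, followed by fixing, HA immunostaining and imaging to obtain DC50 and Dmax.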

[2] = molecular target: T2, BRAF G466V (Homo sapiens, UniProt P15056, G466V); test: Cellular assay of target protein degradation, T-Rex 293 cells stably transfected with HA-BRAF G466V (HA immunofluorescence, high content imaging); format: cell-based; details: T-Rex 293 HA-BRAF G466V; for DC50: half maximal degradation, read-out: BRaf G466V DC50; for Dmax: maximum degradation observed
T2 construct: expressed in transfected cells
How it was run: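 Read-out is HA immunofluorescence by high content imaging, with Hoechst and phalloidin co-staining, giving DC50 and Dmax as a percentage of control. Compound exposure lasts 24 hours at 37° C over 30 nM to 3 pM in 0.1% DMSO, with doxycycline-induced HA-BRAF G466V.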

T2 sequence (P15056 whole entry G466V): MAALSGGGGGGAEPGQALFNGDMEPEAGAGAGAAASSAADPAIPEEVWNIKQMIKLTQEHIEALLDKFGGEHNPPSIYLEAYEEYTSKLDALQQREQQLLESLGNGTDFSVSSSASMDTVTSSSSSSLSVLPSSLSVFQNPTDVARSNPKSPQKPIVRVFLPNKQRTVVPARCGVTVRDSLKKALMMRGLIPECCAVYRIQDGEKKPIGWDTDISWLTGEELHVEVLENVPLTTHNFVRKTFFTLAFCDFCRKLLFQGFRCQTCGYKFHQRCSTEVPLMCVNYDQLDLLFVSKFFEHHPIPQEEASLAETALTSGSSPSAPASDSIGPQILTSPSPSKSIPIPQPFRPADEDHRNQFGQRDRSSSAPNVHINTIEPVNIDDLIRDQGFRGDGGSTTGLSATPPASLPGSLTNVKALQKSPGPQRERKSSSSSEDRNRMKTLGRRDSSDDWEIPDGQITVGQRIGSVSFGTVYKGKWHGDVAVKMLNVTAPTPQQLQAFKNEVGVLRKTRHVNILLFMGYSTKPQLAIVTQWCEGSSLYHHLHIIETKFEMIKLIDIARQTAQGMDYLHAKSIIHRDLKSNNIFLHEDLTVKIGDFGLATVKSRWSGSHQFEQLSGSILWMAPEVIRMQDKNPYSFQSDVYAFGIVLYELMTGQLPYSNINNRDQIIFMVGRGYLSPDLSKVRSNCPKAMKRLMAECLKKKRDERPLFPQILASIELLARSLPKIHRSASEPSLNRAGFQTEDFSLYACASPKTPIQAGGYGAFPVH
T1 sequence (P15056 whole entry V600E): as the sequence (P15056 whole entry G466V) above, with V466G, V600E counted along it

Row | SMILES | DC50 [1] [nM] | Dmax [1] [%] | DC50 [2] [nM] | Dmax [2] [%]
1 | O=C1CCC(N2Cc3cc(N4CC5(CN(CCOc6ncc(-c7cnc8[nH]cc(C(=O)c9c(F)ccc(NS(=O)(=O)N%10CC[C@@H](F)C%10)c9F)c8c7)cn6)C5)C4)ccc3C2=O)C(=O)N1 (stereo partly drawn) [Compound 117, (3R)-N-(3-{5-[2-(2-{6-[2-(2,6-dioxopiperidin-3-yl)-1-oxo-2,3-dihydro-1H-isoindol-5-yl]-2,6-diazaspiro[3.3]heptan-2-yl}ethoxy)pyrimidin-5-yl]-1H-pyrrolo [2,3-b]pyridine-3-carbonyl}-2,4-difluorophenyl)-3-fluoropyrrolidine-1-sulfonamide] | 50 to 500 | 35 to 70 | 1 to 10 | > 70
2 | O=C1CCC(N2Cc3cc(OCCCCN4CCN(c5ccc(-c6cnc7[nH]cc(C(=O)c8c(F)ccc(NS(=O)(=O)N9CC[C@@H](F)C9)c8F)c7c6)cn5)CC4)ccc3C2=O)C(=O)N1 (stereo partly drawn) [Compound 120, (3R)-N-[3-(5-{6-[4-(4-{[2-(2,6-dioxopiperidin-3-yl)-1-oxo-2,3-dihydro-1H-isoindol-5-yl]oxy}butyl)piperazin-1-yl]pyridin-3-yl}-1H-pyrrolo[2,3-b]pyridine-3-carbonyl)-2,4-difluorophenyl]-3-fluoropyrrolidine-1-sulfonamide] | 5 to 50 | 35 to 70 | 1 to 10 | > 70
3 | O=C1CCC(N2Cc3cc(OCCCCN4CCN(c5ncc(-c6cnc7[nH]cc(C(=O)c8c(F)ccc(NS(=O)(=O)N9CC[C@@H](F)C9)c8F)c7c6)cn5)CC4)ccc3C2=O)C(=O)N1 (stereo partly drawn) [Compound 121, (3R)-N-[3-(5-{2-[4-(4-{[2-(2,6-dioxopiperidin-3-yl)-1-oxo-2,3-dihydro-1H-isoindol-5-yl]oxy}butyl)piperazin-1-yl]pyrimidin-5-yl}-1H-pyrrolo[2,3-b]pyridine-3-carbonyl)-2,4-difluorophenyl]-3-fluoropyrrolidine-1-sulfonamide] | 5 to 50 | 35 to 70 | 1 to 10 | > 70
4 | O=C1CCC(N2Cc3cc(OC[C@@H](O)CN4CC5(C4)CN(c4ccc(-c6cnc7[nH]cc(C(=O)c8c(F)ccc(NS(=O)(=O)N9CC[C@@H](F)C9)c8F)c7c6)cc4)C5)ccc3C2=O)C(=O)N1 (stereo partly drawn) [Compound 122, (3R)-N-{3-[5-(4-{6-[(2S)-3-{[2-(2,6-dioxopiperidin-3-yl)-1-oxo-2,3-dihydro-1H-isoindol-5-yl]oxy}-2-hydroxypropyl]-2,6-diazaspiro[3.3]heptan-2-yl}phenyl)-1H-pyrrolo[2,3-b]pyridine-3-carbonyl]-2,4-difluorophenyl}-3-fluoropyrrolidine-1-sulfonamide] | 5 to 50 | 35 to 70 | 1 to 10 | > 70
5 | O=C1CC[C@H](N2Cc3cc(OC[C@H](O)CN4CC5(C4)CN(c4ccc(-c6cnc7[nH]cc(C(=O)c8c(F)ccc(NS(=O)(=O)N9CC[C@@H](F)C9)c8F)c7c6)cc4)C5)ccc3C2=O)C(=O)N1 [Compound 123, (3R)—N-[3-[5-[4-[6-[(2R)-3-[2-[(3S)-2,6-dioxo-3-piperidyl]-1-oxo-isoindolin-5-yl]oxy-2-hydroxy-propyl]-2,6-diazaspiro[3.3]heptan-2-yl]phenyl]-1H-pyrrolo[2,3-b]pyridine-3-carbonyl]-2,4-difluoro-phenyl]-3-fluoro-pyrrolidine-1-sulfonamide] | 5 to 50 | 35 to 70 | 1 to 10 | > 70
6 | O=C1CCC(N2Cc3cc(C4CCN(C[C@@H]5CCN(c6ccc(-c7cnc8[nH]cc(C(=O)c9c(F)ccc(NS(=O)(=O)N%10CC[C@@H](F)C%10)c9F)c8c7)cc6)C[C@@H]5F)CC4)ccc3C2=O)C(=O)N1 (stereo partly drawn) [Compound 125, (3R)-N-[3-(5-{4-[(3R,4S)-4-({4-[2-(2,6-dioxopiperidin-3-yl)-1-oxo-2,3-dihydro-1H-isoindol-5-yl]piperidin-1-yl}methyl)-3-fluoropiperidin-1-yl]phenyl}-1H-pyrrolo[2,3-b]pyridine-3-carbonyl)-2,4-difluorophenyl]-3-fluoropyrrolidine-1-sulfonamide] | 5 to 50 | 35 to 70 | 1 to 10 | > 70
7 | CN(CCN1CCN(c2ccc(-c3cnc4[nH]cc(C(=O)c5c(F)ccc(NS(=O)(=O)N6CC[C@@H](F)C6)c5F)c4c3)cc2)CC1)[C@H]1C[C@@H](Oc2ccc3c(c2)CN(C2CCC(=O)NC2=O)C3=O)C1 (stereo partly drawn) [Compound 126, (3R)-N-[2,4-difluoro-3-(5-{4-[4-(2-{methyl[(1s,3s)-3-{[2-(2,6-dioxopiperidin-3-yl)-1-oxo-2,3-dihydro-1H-isoindol-5-yl]oxy}cyclobutyl]amino}ethyl)piperazin-1-yl]phenyl}-1H-pyrrolo[2,3-b]pyridine-3-carbonyl)phenyl]-3-fluoropyrrolidine-1-sulfonamide] | 5 to 50 | 35 to 70 | 1 to 10 | 35 to 70
8 | O=C1CC[C@H](N2Cc3cc(C[C@@H](O)CN4CC5(C4)CN(c4ccc(-c6cnc7[nH]cc(C(=O)c8c(F)ccc(NS(=O)(=O)N9CC[C@@H](F)C9)c8F)c7c6)cc4)C5)ccc3C2=O)C(=O)N1 [Compound 128, (3R)-N-{3-[5-(4-{6-[(2R)-3-{2-[(3S)-2,6-dioxopiperidin-3-yl]-1-oxo-2,3-dihydro-1H-isoindol-5-yl}-2-hydroxypropyl]-2,6-diazaspiro[3.3]heptan-2-yl}phenyl)-1H-pyrrolo[2,3-b]pyridine-3-carbonyl]-2,4-difluorophenyl}-3-fluoropyrrolidine-1-sulfonamide] | 5 to 50 | 35 to 70 | 1 to 10 | > 70
9 | O=C1CC[C@@H](N2Cc3cc(C[C@@H](O)CN4CC5(C4)CN(c4ccc(-c6cnc7[nH]cc(C(=O)c8c(F)ccc(NS(=O)(=O)N9CC[C@@H](F)C9)c8F)c7c6)cc4)C5)ccc3C2=O)C(=O)N1 [Compound 129, (3R)-N-{3-[5-(4-{6-[(2R)-3-{2-[(3R)-2,6-dioxopiperidin-3-yl]-1-oxo-2,3-dihydro-1H-isoindol-5-yl}-2-hydroxypropyl]-2,6-diazaspiro[3.3]heptan-2-yl}phenyl)-1H-pyrrolo[2,3-b]pyridine-3-carbonyl]-2,4-difluorophenyl}-3-fluoropyrrolidine-1-sulfonamide] | 5 to 50 | 35 to 70 | 1 to 10 | > 70

Other lines, results leading:

Row | DC50 [1] [nM] | Dmax [1] [%] | DC50 [2] [nM] | Dmax [2] [%] | SMILES
10 | 5 to 50 | 35 to 70 | < 1 | 35 to 70 | O=C1CC[C@@H](N2Cc3cc(C[C@H](O)CN4CCC(c5ccc(-c6cnc7[nH]cc(C(=O)c8c(F)ccc(NS(=O)(=O)N9CC[C@@H](F)C9)c8F)c7c6)cc5)CC4)ccc3C2=O)C(=O)N1 [Compound 116, (3R)-N-{3-[5-(4-{1-[(2S)-3-{2-[(3R)-2,6-dioxopiperidin-3-yl]-1-oxo-2,3-dihydro-1H-isoindol-5-yl}-2-hydroxypropyl]piperidin-4-yl}phenyl)-1H-pyrrolo[2,3-b]pyridine-3-carbonyl]-2,4-difluorophenyl}-3-fluoropyrrolidine-1-sulfonamide]
11 | > 500 | > 70 | 1 to 10 | > 70 | O=C1CCC(N2Cc3cc(C4CCN(C[C@@H](O)Cc5ccc(-c6cnc7[nH]cc(C(=O)c8c(F)ccc(NS(=O)(=O)N9CC[C@@H](F)C9)c8F)c7c6)cc5)CC4)ccc3C2=O)C(=O)N1 (stereo partly drawn) [Compound 118, (3R)-N-[3-(5-{4-[(2S)-3-{4-[2-(2,6-dioxopiperidin-3-yl)-1-oxo-2,3-dihydro-1H-isoindol-5-yl]piperidin-1-yl}-2-hydroxypropyl]phenyl}-1H-pyrrolo[2,3-b]pyridine-3-carbonyl)-2,4-difluorophenyl]-3-fluoropyrrolidine-1-sulfonamide]
12 | < 5 | 35 to 70 | < 1 | 35 to 70 | O=C1CCC(N2Cc3cc(C4CCN(CC5(O)CCN(c6ccc(-c7cnc8[nH]cc(C(=O)c9c(F)ccc(NS(=O)(=O)N%10CC[C@@H](F)C%10)c9F)c8c7)cc6)CC5)CC4)ccc3C2=O)C(=O)N1 (stereo partly drawn) [Compound 119, (3R)-N-[3-(5-{4-[4-({4-[2-(2,6-dioxopiperidin-3-yl)-1-oxo-2,3-dihydro-1H-isoindol-5-yl]piperidin-1-yl}methyl)-4-hydroxypiperidin-1-yl]phenyl}-1H-pyrrolo[2,3-b]pyridine-3-carbonyl)-2,4-difluorophenyl]-3-fluoropyrrolidine-1-sulfonamide]
13 | 5 to 50 | 35 to 70 | 1 to 10 | > 70 | O=C1CC[C@@H](N2Cc3cc(OC[C@H](O)CN4CC5(C4)CN(c4ccc(-c6cnc7[nH]cc(C(=O)c8c(F)ccc(NS(=O)(=O)N9CC[C@@H](F)C9)c8F)c7c6)cc4)C5)ccc3C2=O)C(=O)N1 [Compound 124, (3R)—N-[3-[5-[4-[6-[(2R)-3-[2-[(3R)-2,6-dioxo-3-piperidyl]-1-oxo-isoindolin-5-yl]oxy-2-hydroxy-propyl]-2,6-diazaspiro[3.3]heptan-2-yl]phenyl]-1H-pyrrolo[2,3-b]pyridine-3-carbonyl]-2,4-difluoro-phenyl]-3-fluoro-pyrrolidine-1-sulfonamide]
14 | < 5 | < 35 | 1 to 10 | > 70 | O=C1CCC(N2Cc3cc(C4CCN(CCC5CCN(c6ccc(-c7cnc8[nH]cc(C(=O)c9c(F)ccc(NS(=O)(=O)N%10CC[C@@H](F)C%10)c9F)c8c7)cc6)CC5)CC4)ccc3C2=O)C(=O)N1 (stereo partly drawn) [Compound 127, (3R)-N-[3-(5-{4-[4-(2-{4-[2-(2,6-dioxopiperidin-3-yl)-1-oxo-2,3-dihydro-1H-isoindol-5-yl]piperidin-1-yl}ethyl)piperidin-1-yl]phenyl}-1H-pyrrolo[2,3-b]pyridine-3-carbonyl)-2,4-difluorophenyl]-3-fluoropyrrolidine-1-sulfonamide]
